{
  "source": "patent US9498436B2",
  "about": "“Testosterone solutions for the treatment of testosterone deficiency” (INNOTESTO BVBA, priority 2010, dated 2016)",
  "experiment": "Testosterone serum level after oromucosal (buccal) administration of testosterone solution, chemiluminescent-immunoassay",
  "conditions": "for mean increase of the testosterone level per 500 μg T: 30 minutes after buccal administration; for increase per 100 μg T / increase per 500 μg T: buccal solution; for concentration at 30 min: increase of testosterone serum level, 30 minutes post dose, volunteer, baseline 10-15 nmol/L",
  "procedure": "Devices used in the experimental oromucosal application of the solutions of the invention were glass bottles with a spray device from Valois, type VP7, allowing the administration of volumes of 25 μL, 50 μL and 100 μL\nBlood samples were taken and analysed for testosterone serum levels using a chemiluminescent-immunoassay (Access Beckman Coulter).\n• Testosterone levels were measured 30 minutes after buccal administration of the testosterone solution by a spray pump with a spray volume of 25 μl, 50 μl or 100 μl. • Oromucosal (buccal,sublingual) testosterone solutions administered were in 17 cases a solution in water containing as main constituents testosterone and RAMEB and in 7 cases testosterone in a solution containing as main excipient isopropyl myristate.",
  "key": {"[1]": {"conditions": "dose 125 μg T, 30 minutes after administration"}, "[2]": {"conditions": "dose 300 μg T, 30 minutes after administration"}, "[3]": {"conditions": "dose 375 μg T, 30 minutes after administration, separate applications"}, "[4]": {"conditions": "dose 400 μg T, 30 minutes after administration, separate applications"}, "[5]": {"conditions": "dose 570 μg T, 30 minutes after administration, separate applications"}, "[6]": {"conditions": "dose 1000 μg T, 30 minutes after administration"}, "[7]": {"conditions": "dose 1150 μg T, 30 minutes after administration"}, "[8]": {"conditions": "mean of 24 buccal applications (17 aqueous, 7 non-aqueous), 30 minutes after administration"}, "[9]": {"conditions": "oromucosal, general statement in description"}},
  "note": "Values joined by “and” are separate entries in the source; they are usually repeats but may differ in a detail not shown here. Equal values may be shown once.",
  "data": [
    {"smiles": "C[C@]12CC[C@H]3[C@@H](CCC4=CC(=O)CC[C@@]43C)[C@@H]1CC[C@@H]2O", "note": "[testosterone]", "values": [
      {"measurement": "testosterone (T) serum level", "setting": "Volunteer M, sample M3, 10.00 am, aqueous solution 500 μg T at 7.30 am, 375 μg T at 9.30 and 11.30 am", "result": 25.45, "unit": "nmol/L"},
      {"measurement": "testosterone (T) serum level", "setting": "Volunteer M, sample M4, 12.00 am, aqueous solution 500 μg T at 7.30 am, 375 μg T at 9.30 and 11.30 am", "result": 18.81, "unit": "nmol/L"},
      {"measurement": "mean increase of the testosterone level per 500 μg T", "setting": "aqueous formulations (testosterone and RAMEB, ethanol 15% v/v), 17 cases", "result": 15.2, "unit": "nmol/L"},
      {"measurement": "increase per 100 μg T", "setting": "[1]", "result": 2.7, "unit": "nmol/L"},
      {"measurement": "increase per 500 μg T", "setting": "[1]", "result": 14, "unit": "nmol/L"},
      {"measurement": "increase per 100 μg T", "setting": "[2]", "result": 4.2, "unit": "nmol/L"},
      {"measurement": "increase per 500 μg T", "setting": "[2]", "result": 21, "unit": "nmol/L"},
      {"measurement": "increase per 100 μg T", "setting": "[3]", "result": "4.3 nmol/L and 2.4 nmol/L"},
      {"measurement": "increase per 500 μg T", "setting": "[3]", "result": "22 nmol/L and 12 nmol/L"},
      {"measurement": "increase per 100 μg T", "setting": "[4]", "result": "3.0 nmol/L and 2.0 nmol/L"},
      {"measurement": "increase per 500 μg T", "setting": "[4]", "result": "15 nmol/L and 10 nmol/L"},
      {"measurement": "increase per 100 μg T", "setting": "[5]", "result": "4.0 nmol/L and 4.4 nmol/L"},
      {"measurement": "increase per 500 μg T", "setting": "[5]", "result": "20 nmol/L and 22 nmol/L"},
      {"measurement": "increase per 100 μg T", "setting": "[6]", "result": 3.8, "unit": "nmol/L"},
      {"measurement": "increase per 500 μg T", "setting": "[6]", "result": 19, "unit": "nmol/L"},
      {"measurement": "increase per 100 μg T", "setting": "[7]", "result": 3.1, "unit": "nmol/L"},
      {"measurement": "increase per 500 μg T", "setting": "[7]", "result": 16, "unit": "nmol/L"},
      {"measurement": "concentration at 30 min", "setting": "human, serum, other: buccal (oromucosal spray), 400 μg, non-aqueous solution, 50 μL=400 μg testosterone buccally", "result": 18, "unit": "nM"},
      {"measurement": "concentration at 30 min", "setting": "human, serum, other: buccal (oromucosal spray), 500 μg, aqueous solution, 100 μL (=500 μg testosterone) buccally", "result": 20, "unit": "nM"},
      {"measurement": "concentration at 30 min", "setting": "human, serum, other: buccal (oromucosal spray), 800 μg, non-aqueous solution, 100 μL=800 μg testosterone buccally", "result": 36, "unit": "nM"},
      {"measurement": "concentration at 30 min", "setting": "human, serum, other: buccal (oromucosal spray), 1000 μg, aqueous solution, 2×100 μL (=1000 μg testosterone) buccally", "result": 38, "unit": "nM"},
      {"measurement": "concentration at 0 h", "setting": "human, serum, other: buccal (oromucosal spray), testosterone (T) serum level, Volunteer D, sample D1, 7.30 am (time of first dose), aqueous solution 500 μg T at 7.30, 9.30, 11.30 am", "result": 11.9, "unit": "nM"},
      {"measurement": "concentration at 0.5 h", "setting": "human, serum, other: buccal (oromucosal) solution, spray, 500 μg, testosterone (T) serum level, Volunteer D, sample D2, 8.00 am, aqueous solution 500 μg T at 7.30, 9.30, 11.30 am", "result": 18.6, "unit": "nM"},
      {"measurement": "concentration at 2.5 h", "setting": "human, serum, other: buccal (oromucosal) solution, spray, 500 μg, testosterone (T) serum level, Volunteer D, sample D3, 10.00 am, aqueous solution 500 μg T at 7.30, 9.30, 11.30 am", "result": 28.1, "unit": "nM"},
      {"measurement": "concentration at […]", "setting": "human, serum, other: buccal (oromucosal) solution, spray, 500 μg, testosterone (T) serum level, Volunteer D, sample D4, 12.00 am, aqueous solution 500 μg T at 7.30, 9.30, 11.30 am", "result": 28.7, "unit": "nM"},
      {"measurement": "concentration at 0 h", "setting": "human, serum, other: buccal (oromucosal) solution, spray, 500 μg, testosterone (T) serum level, Volunteer M, sample M1, 7.30 am (time of first dose), aqueous solution 500 μg T at 7.30 am, 375 μg T at 9.30 and 11.30 am", "result": 8.72, "unit": "nM"},
      {"measurement": "concentration at 0.5 h", "setting": "human, serum, other: buccal (oromucosal) solution, spray, 500 μg, testosterone (T) serum level, Volunteer M, sample M2, 8.00 am, aqueous solution 500 μg T at 7.30 am, 375 μg T at 9.30 and 11.30 am", "result": 25.5, "unit": "nM"},
      {"measurement": "mean (SD) increase per 100 μg T", "setting": "[8]", "result": "3.1 nmol/L and 3.1(0.9) nmol/L"},
      {"measurement": "mean (SD) increase per 500 μg T", "setting": "[8]", "result": "15.7 nmol/L and 15.7(4.6) nmol/L"},
      {"measurement": "mean increase of the testosterone level per 500 μg T", "setting": "non-aqueous formulations (isopropyl myristate, ethanol 15% v/v), 7 cases", "result": 16.7, "unit": "nmol/L"},
      {"measurement": "mean increase in testosterone serum level for each 0.1 mg testosterone dose administered", "setting": "[9]", "result": "about 3 nmol/L"},
      {"measurement": "mean increase in testosterone serum level for each 0.5 mg testosterone dose administered", "setting": "[9]", "result": "about 15 nmol/L"}
    ]}
  ]
}
